Measurements taken from paper PMC6354011 (Scientific Reports, 2019).
Several values for one entry are separate records, joined by “and”; a condition that tells them apart may be missing. Equal values may be shown once. Read-outs that look alike come from different tables or passages of the source.

What was measured:
[1] = biological target: T1, equine serum butyrylcholinesterase (BChE, EC 3.1.1.8) (Equus caballus, UniProt P81908); assay: biochemical; format: biochemical; conditions: for BChE % inhibition: single read
T1 construct: equine serum butyrylcholinesterase (BChE, EC 3.1.1.8); purchased Sigma-Aldrich (USA); host or cells: equine serum
Description: (§1) Ellman’s colorimetric method with minor modification was employed in the determination of AChE and BChE inhibitory activities. Electric eel acetylcholinesterase (AChE, EC 3.1.1.7), equine serum butyrylcholinesterase (BChE, EC 3.1.1.8), 5,5′-Dithiobis(2-nitrobenzoic acid) (DTNB) and sodium phosphate dibasic (Na2HPO4) were purchased from Sigma-Aldrich (USA). S-butyrylthiocholine chloride (BTCC) from Sigma-Aldrich (Switzerland), acetylthiocholine iodide (ATCI) from Sigma-Aldrich (United Kingdom) and sodium phosphate monobasic (NaH2PO4) from Sigma-Aldrich (Germany) were purchased. […] Ethanol was used to replace the sample as a control in this assay.

[2] = biological target: T2, Electric eel acetylcholinesterase (AChE, EC 3.1.1.7) (Electrophorus electricus, UniProt O42275); assay: biochemical; conditions: mean ± SD, n = 3; read-out: IC50 (µM) AChE
T2 construct: purchased Sigma-Aldrich (USA)
Description: as §1

[3] = mean ± SD, n = 3, read-out: IC50 (µM) BChE

T1 sequence (P81908 whole entry): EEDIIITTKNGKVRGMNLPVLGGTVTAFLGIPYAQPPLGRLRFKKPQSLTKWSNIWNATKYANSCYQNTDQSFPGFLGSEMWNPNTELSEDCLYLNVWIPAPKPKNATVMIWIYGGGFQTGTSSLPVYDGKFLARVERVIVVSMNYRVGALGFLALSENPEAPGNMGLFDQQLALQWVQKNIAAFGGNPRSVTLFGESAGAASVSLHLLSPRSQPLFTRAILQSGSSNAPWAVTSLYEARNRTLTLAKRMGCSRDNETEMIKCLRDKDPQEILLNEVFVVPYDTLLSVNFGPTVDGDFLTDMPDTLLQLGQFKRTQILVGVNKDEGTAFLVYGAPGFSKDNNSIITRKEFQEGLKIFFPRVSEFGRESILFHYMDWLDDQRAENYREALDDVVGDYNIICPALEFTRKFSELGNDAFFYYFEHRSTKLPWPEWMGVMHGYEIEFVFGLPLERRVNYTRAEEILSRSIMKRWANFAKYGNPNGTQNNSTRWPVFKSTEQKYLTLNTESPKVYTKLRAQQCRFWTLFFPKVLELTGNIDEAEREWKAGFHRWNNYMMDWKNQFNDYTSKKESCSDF
T2 sequence (O42275 24-633): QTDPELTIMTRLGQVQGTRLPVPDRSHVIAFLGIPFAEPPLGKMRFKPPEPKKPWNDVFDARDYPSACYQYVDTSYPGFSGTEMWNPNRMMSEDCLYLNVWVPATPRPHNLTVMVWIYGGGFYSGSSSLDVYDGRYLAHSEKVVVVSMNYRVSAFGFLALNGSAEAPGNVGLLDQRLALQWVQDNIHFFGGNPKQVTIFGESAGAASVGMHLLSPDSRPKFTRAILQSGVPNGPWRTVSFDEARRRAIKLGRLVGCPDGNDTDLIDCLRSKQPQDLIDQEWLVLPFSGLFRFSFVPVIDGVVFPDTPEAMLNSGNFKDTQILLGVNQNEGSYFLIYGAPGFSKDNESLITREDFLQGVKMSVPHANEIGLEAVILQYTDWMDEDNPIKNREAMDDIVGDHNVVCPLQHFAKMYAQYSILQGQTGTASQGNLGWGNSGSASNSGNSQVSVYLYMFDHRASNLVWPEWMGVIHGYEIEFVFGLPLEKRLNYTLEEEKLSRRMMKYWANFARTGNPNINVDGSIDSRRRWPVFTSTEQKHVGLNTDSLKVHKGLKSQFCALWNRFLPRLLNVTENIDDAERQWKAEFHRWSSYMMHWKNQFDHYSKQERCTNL

With `Cc1cccn2cc(-c3ccc(Cl)cc3)nc12` [Compound 2n, 2-(4-chlorophenyl)-8-methylimidazo[1,2-a]pyridine] the IC50 ([1]; N = 3, unit not given (µg/mL scale), read-out: BChE IC50, Tukey HSD homogeneous subsets (group mean) (converted)) was 737 µM, the BChE % inhibition ([1]; conc 25 (µg/mL)) was 10.83% and 20.0586% and 13.47% and the BChE % inhibition ([1]; conc 100 (µg/mL)) was 42.02% and 27.53% and 43.78%. The BChE % inhibition ([1]; conc 150 (µg/mL)) was 45.53% and 45.97% and 50.81%, the BChE % inhibition ([1]; conc 200 (µg/mL)) was 56.52% and 54.76% and 59.15% and the BChE % inhibition ([1]; conc 250 (µg/mL)) was 63.98% and 61.79%. The IC50 [1, 3] was 722 ± 48 µM and the IC50 [2] was over 2000 µM.

`Cc1cccn2cc(-c3ccc(Br)cc3)nc12` [Compound 2o, 2-(4-bromophenyl)-8-methylimidazo[1,2-a]pyridine] gave an IC50 [1, 3] of over 2000 µM and an IC50 [2] of over 2000 µM.
